Measurements: US10772884B2, “Sulphate salts of N-(3-(4-(3-(diisobutylamino)propyl)piperazin-1-yl)propyl)-1H-benzo[d]imidazol-2-amine, preparation thereof and use of the same” (ALZPROTECT, priority 2012, dated 2020)
Structures can show the parent of a compound that is named as a salt.

Columns and labels:
Format in all cases: physicochemical
[1] = salt formation results (physical form)
Protocol: The hydrochloride, hydrobromide, acetate, tartrate, fumarate, malate, oxalate and sulphate salts of N-(3-(4-(3-(diisobutylamino)propyl)piperazin-1-yl)propyl)-1H-benzo[d]imidazol-2-amine were prepared according to procedures similar to those described in the previous examples or standard salt formation methods well known in the art.

[2] = DSC analysis of crystalline phase; conditions: DSC endotherm
Protocol: DSC spectra. TA Instrument, DSC Q10.
DSC spectra were recorded on a TA DSC Q10 instrument within a temperature range of −10° C. to 300° C. or 400° C. and with 10° C. increments.

[3] = XRPD analysis of crystallinity; conditions: powder, ambient
Protocol: X-ray powder diffraction (XRPD) analysis is performed on a Brüker—AXS D8 Advance diffractometer, using a copper anti-cathode, a mono-crystalline silicon sample holder and a position sensitive detector. Instrument operating conditions for X-rays pattern acquisition are described in Table 2.
The powder sample is dispersed on the silicon sample holder in a way to avoid preferred orientation (not randomly oriented crystals) and to ensure planarity of the specimen surface.

[4] = Dynamic vapour sorption (DVS) with water
Protocol: Dynamic vapour sorption (DVS) analyses with water were performed on a DVS-Intrisic incubator from SMS Ltd, equipped with DVS-Intrisic Control Software 1.0.
A sample of about 5 to 10 mg, placed in an aluminium pan holder, was submitted to a full-cycle analysis (sorption followed by desorption) under the conditions described in Table 3.
The sample was pre-dried under a stream of dry filtered air until a stable mass was obtained. Relative humidity was then increased by 5% increments. At each step, the sample was allowed to increase until equilibrium is reached (dm/dt criterion), then relative humidity was increased further. Relative humidity was ramped up to 95%. After equilibration at this stage, desorption is started in a similar stepwise manner, with a sample weight allowed to stabilize after each incremental humidity decrease step.
DVS analysis was carried out according to the method described above.

[5] = sample left standing open to the air (hygroscopicity, stability); conditions: listed as chloride salt
From the text: Both sulphate salts precipitated as solids. They were found stable when left open to the air. In contrast to the chloride salt, no hygroscopicity issue was observed.

Molecule: CC(=O)O [Acetate]
- Physical form ([1]; Acid eq. added 1): No solid formed, oily residue
- Physical form ([1]; Acid eq. added 2): No solid formed, oily residue

Molecule: Fumarate
- Physical form ([1]; Acid eq. added 1): Not crystalline^2
- crystalline phase by DSC [2]: not crystalline

Molecule: Sulphate
- Physical form ([1]; Acid eq. added 1): Crystalline powder (colorless
- Physical form ([1]; Acid eq. added 2): Crystalline powder (colorless

Molecule: CC(C)CN(CCCN1CCN(CCCNc2nc3ccccc3[nH]2)CC1)CC(C)C [Example 4, N-(3-(4-(3-(diisobutylamino)propyl)piperazin-1-yl)propyl)-1H-benzo[d]imidazol-2-amine, 2 eq sulphate salt]
- crystallinity by XRPD [3]: good crystallinity

Molecule: CC(C)CN(CCCN1CCN(CCCNc2nc3ccccc3[nH]2)CC1)CC(C)C.O=C(O)C(=O)O.O=C(O)C(=O)O.O=C(O)C(=O)O.O=C(O)C(=O)O [4 eq oxalate salt, N-(3-(4-(3-(diisobutylamino)propyl)piperazin-1-yl)propyl)-1H-benzo[d]imidazol-2-amine, 4 eq oxalate salt, reference compound]
- crystalline phase by DSC [2]: most well shaped and defined endotherm
- crystallinity by XRPD [3]: little or poor crystallinity

Molecule: CC(C)CN(CCCN1CCN(CCCNc2nc3ccccc3[nH]2)CC1)CC(C)C [Example 1, N-(3-(4-(3-(diisobutylamino)propyl)piperazin-1-yl)propyl)-1H-benzo[d]imidazol-2-amine, 2.9 eq sulphate salt]
- crystallinity by XRPD ([3]; sulphate salt): well good crystalline phase

Molecule: Malate
- Physical form ([1]; Acid eq. added 1): Powder

Molecule: Oxalate
- Physical form ([1]; Acid eq. added 2): Gum
- Physical form ([1]; Acid eq. added 3): Gum
- Physical form ([1]; Acid eq. added 4): Crystalline powder

Molecule: CC(C)CN(CCCN1CCN(CCCNc2nc3ccccc3[nH]2)CC1)CC(C)C.O.O.O=S(=O)(O)O [di-hydrated form of example 3, di-hydrated form of N-(3-(4-(3-(diisobutylamino)propyl)piperazin-1-yl)propyl)-1H-benzo[d]imidazol-2-amine, 1 eq sulphate salt]
- stability and hygroscopicity in second DVS cycle ([4]; 25° C., second sorption/desorption cycle): stable and non hygroscopic
- water uptake for the di-hydrated form, experimentally determined ([4]; DVS 25° C.): 6.7%
- theoretical water uptake for the di-hydrated form ([4]; calculated): 6.8%

Molecule: CC(C)CN(CCCN1CCN(CCCNc2nc3ccccc3[nH]2)CC1)CC(C)C.O=S(=O)(O)O [Example 3, N-(3-(4-(3-(diisobutylamino)propyl)piperazin-1-yl)propyl)-1H-benzo[d]imidazol-2-amine, 1 eq sulphate salt]
- crystallinity by XRPD [3]: good crystallinity
- mass lost upon drying ([4]; 25° C./0% RH): 0.18%
- remaining amount of water upon desorption ([4]; 25° C./0% RH): 4.6%
- hygroscopicity (criterion: more than 2% by weight water uptake) ([4]; 25° C./60% RH): not hygroscopic
- water uptake upon sorption ([4]; 25° C./60% RH, compared to sample mass after initial drying at 0% RH): 0.7%
- residual water remaining upon desorption ([4]; 25° C./75% RH as printed, interval 95 to 90% RH): 10%
- hysteresis (adsorbed water retained upon desorption) ([4]; 25° C./75% RH, interval 75 to 10% RH): up to 6.7%
- water uptake upon sorption ([4]; 25° C./80% RH, compared to sample mass after initial drying at 0% RH): 1.5%
- water uptake upon sorption ([4]; 25° C./90% RH, compared to sample mass after initial drying at 0% RH): 9.7%
- water vapour uptake upon sorption ([4]; 25° C./95% RH, compared to sample mass after initial drying at 0% RH): 19.4%

Molecule: Cl [Chloride]
- hygroscopicity [5]: very hygroscopic

Molecule: Tartrate
- Physical form ([1]; Acid eq. added 1): Not crystalline^2
- crystalline phase by DSC [2]: not crystalline
